The target of assay [1] is mitochondrial RNA polymerase (POLRMT) (Mus musculus, UniProt Q8BKF1). The assay can be described thus: Homogeneous TR-FRET assay for mitochondrial transcription activity. The format is biochemical. Conditions: homogeneous TR-FRET assay according to Example 4. The method in brief:
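Read-out is TR-FRET (ex 340, em 665 nm) from two adjacent labelled DNA probes annealing to the 407 bp transcript after EDTA/700 mM NaCl stop. Reaction: murine POLRMT, TFAM, TFB2M and LSP plasmid template, compound 10 μM or serial dilution, 10 min rt preincubation, 500 μM each nucleotide, 2 h rt.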
For orientation: TR-FRET usually uses a lanthanide donor and a delayed reading to cut background.

For assay [2], the system named is mitochondrial transcription (7S RNA) in HeLa cells. The assay can be described thus: Quantitative real time-PCR assay of inhibition of mitochondrial transcription (7S RNA) in HeLa cells. The class given is cell-based. The note with it: Homo sapiens, 4 h compound incubation, according to Example 5, read-out: cellular qPCR assay. The method in brief: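 HeLa cells were exposed to compound dilution series or DMSO for 4 h, then RNA was extracted, normalized and reverse-transcribed. TaqMan qRT-PCR measured short-lived 7S RNA, with POLRMT as nuclear-transcription readout and TBP as housekeeping gene. Biological triplicates were analyzed by ΔΔCt and reported as Rq % (2−ΔΔCt).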
(In qPCR the cycle at which signal appears reflects the starting amount.)

mitochondrial RNA polymerase (POLRMT), sequence (Q8BKF1 42-1207): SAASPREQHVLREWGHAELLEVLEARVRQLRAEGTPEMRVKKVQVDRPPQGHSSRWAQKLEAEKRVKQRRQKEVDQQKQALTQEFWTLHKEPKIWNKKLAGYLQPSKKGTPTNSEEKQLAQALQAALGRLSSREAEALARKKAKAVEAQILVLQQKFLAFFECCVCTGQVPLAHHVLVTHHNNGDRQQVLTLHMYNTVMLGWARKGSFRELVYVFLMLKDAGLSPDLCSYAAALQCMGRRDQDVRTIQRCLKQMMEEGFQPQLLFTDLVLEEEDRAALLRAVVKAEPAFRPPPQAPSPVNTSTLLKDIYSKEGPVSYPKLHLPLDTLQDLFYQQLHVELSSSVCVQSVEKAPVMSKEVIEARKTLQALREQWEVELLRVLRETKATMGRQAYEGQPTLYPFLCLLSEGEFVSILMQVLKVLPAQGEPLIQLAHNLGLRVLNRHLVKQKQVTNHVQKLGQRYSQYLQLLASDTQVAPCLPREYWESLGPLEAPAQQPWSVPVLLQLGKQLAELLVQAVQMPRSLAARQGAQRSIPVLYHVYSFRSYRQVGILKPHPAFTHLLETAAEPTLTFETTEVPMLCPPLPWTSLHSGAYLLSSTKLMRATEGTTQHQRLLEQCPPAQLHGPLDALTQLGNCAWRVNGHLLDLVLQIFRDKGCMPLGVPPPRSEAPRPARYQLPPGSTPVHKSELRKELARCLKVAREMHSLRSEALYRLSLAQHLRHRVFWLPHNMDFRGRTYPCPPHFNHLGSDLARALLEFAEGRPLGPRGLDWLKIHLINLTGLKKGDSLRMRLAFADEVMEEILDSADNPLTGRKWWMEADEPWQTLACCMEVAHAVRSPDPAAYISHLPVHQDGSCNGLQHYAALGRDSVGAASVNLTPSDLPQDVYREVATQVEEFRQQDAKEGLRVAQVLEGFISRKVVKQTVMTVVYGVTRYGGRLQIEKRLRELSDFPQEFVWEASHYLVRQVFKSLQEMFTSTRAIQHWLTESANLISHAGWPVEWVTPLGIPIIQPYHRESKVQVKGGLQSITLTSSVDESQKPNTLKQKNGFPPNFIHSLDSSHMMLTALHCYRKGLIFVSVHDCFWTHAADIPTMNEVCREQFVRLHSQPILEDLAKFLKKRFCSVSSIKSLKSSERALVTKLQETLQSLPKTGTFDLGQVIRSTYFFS

For the compound `C[C@@H](Oc1ccc2c(-c3c(Cl)cccc3Cl)ccnc2c1)C(=O)N1CCC[C@H](CC(=O)O)C1` [Compound 120, 2-[(3R)-1-[(2R)-2-[[4-(2,6-dichlorophenyl)-7-quinolyl]oxy]propanoyl]-3-piperidyl]acetic acid], the IC50 in assay [1] is less than 20 nM; in assay [2], 10 to 50 nM.
Taken in the same sequence, the figures for `CC(C)N(C)C(=O)[C@@H](C)Oc1ccc2c(-c3ccc(F)cc3Cl)ccnc2c1` [Compound 32, (2R)-2-[[4-(2-chloro-4-fluoro-phenyl)-7-quinolyl]oxy]-N-isopropyl-N-methyl-propanamide] were 100 to 1000 nM and 10 to 50 nM.
Taken in the same sequence, the figures for `C[C@@H](Oc1ccc2c(-c3ccc(F)cc3Cl)ccnc2c1)C(=O)N1CCC[C@H](S(N)(=O)=O)C1` [Compound 116, (3S)-1-[(2R)-2-[[4-(2-chloro-4-fluoro-phenyl)-7-quinolyl]oxy]propanoyl]piperidine-3-sulfonamide] were 100 to 1000 nM and less than 10 nM.
For `CCc1ccccc1-c1ccnc2cc(O[C@H](C)C(=O)N3CCC[C@H](CC(=O)O)C3)ccc12` [Compound 121, 2-((R)-1-((R)-2-((4-(2-ethylphenyl)quinolin-7-yl)oxy)propanoyl)piperidin-3-yl)acetic acid], in that order: 20 to 100 nM and 10 to 50 nM.
Consider `Cc1cc(F)cc(C)c1-c1ccnc2cc(O[C@H](C)C(=O)N3CCCC4(CC4C(=O)O)C3)ccc12` (mixture of isomers) [Compound 174, 5-[rac-(2R)-2-[[4-(4-fluoro-2,6-dimethyl-phenyl)-7-quinolyl]oxy]propanoyl]-5-azaspiro[2.5]octane-2-carboxylic acid], for which the IC50 in assay [1] was less than 20 nM; in assay [2], less than 10 nM.
For `Cc1cc(-c2ccc(F)cc2Cl)c2ccc(O[C@H](C)C(=O)N3CCC[C@H](C(=O)O)C3)cc2n1` [Compound 59, (3S)-1-[(2R)-2-[[4-(2-chloro-4-fluoro-phenyl)-2-methyl-7-quinolyl]oxy]propanoyl]piperidine-3-carboxylic acid], in that order: 100 to 1000 nM and 10 to 50 nM.
Taken in the same sequence, the figures for `C[C@@H](Oc1ccc2c(-c3c(Cl)cc(F)cc3Cl)ccnc2c1)C(=O)N1CCC[C@H](C(=O)O)C1` [Compound 132, (3S)-1-[(2R)-2-[[4-(2,6-dichloro-4-fluoro-phenyl)-7-quinolyl]oxy]propanoyl]piperidine-3-carboxylic acid] were less than 20 nM and less than 10 nM.
For the compound `CC(C)NC(=O)[C@@H](C)Oc1ccc2c(-c3ccccc3Cl)ccnc2c1` [Compound 48, (2R)-2-[[4-(2-chlorophenyl)-7-quinolyl]oxy]-N-isopropyl-propanamide], the IC50 in assay [1] was 100 to 1000 nM; in assay [2] it was 50 to 500 nM.
For `C[C@@H](Oc1ccc2c(-c3ccc(F)cc3Cl)ccnc2c1)C(=O)N1CC[C@H](C(=O)O)C1` [Compound 19, (3S)-1-[(2R)-2[[4-(2-chloro-4-fluoro-phenyl)-7-quinolyl]oxy]propanoyl]pyrrolidine-3-carboxylic acid], in that order: 20 to 100 nM and 50 to 500 nM.
Taken in the same sequence, the figures for `Cc1cccc(C)c1-c1ccnc2cc(O[C@H](C)C(=O)N3CCCC(S(N)(=O)=O)C3)ccc12` (mixture of isomers) [Compound 119, 1-[rac-(2R)-2-[[4-(2,6-dimethylphenyl)-7-quinolyl]oxy]propanoyl]piperidine-3-sulfonamide] were less than 20 nM and less than 10 nM.
Taken in the same sequence, the figures for `Cc1cscc1-c1ccnc2cc(O[C@H](C)C(=O)N3CCC[C@H](CC(=O)O)C3)ccc12` [Compound 133, 2-[(3R)-1-[(2R)-2-[[4-(4-methyl-3-thienyl)-7-quinolyl]oxy]propanoyl]-3-piperidyl]acetic acid] were 100 to 1000 nM and 50 to 500 nM.
